Laboratory results from the NIST ThermoML archive (doi:10.1021/je049893r).

Conditions: Liquid, Vibrating tube method

CCCOCC(C)O (centres undefined) [1-propoxy-2-propanol]
mass density [kg/m3]
Conditions | 100 kPa | 1000 kPa | 2500 kPa | 5000 kPa | 7500 kPa | 10000 kPa | 15000 kPa | 20000 kPa | 25000 kPa
283.15 K | 895.1 | 895.7 | 896.7 | 898.5 | 900.1 | 901.8 | 905 | 908.1 | 911.1
293.15 K | 886 | 886.6 | 887.7 | 889.6 | 891.3 | 893.1 | 896.5 | 899.8 | 902.9
303.15 K | 876.4 | 877.2 | 878.4 | 880.3 | 882.2 | 884 | 887.6 | 891.1 | 894.4
313.15 K | 866.9 | 867.6 | 868.9 | 871 | 873 | 875 | 878.8 | 882.4 | 885.9
323.15 K | 857.2 | 858 | 859.3 | 861.4 | 863.5 | 865.6 | 869.6 | 873.5 | 877.2
333.15 K | 847.1 | 847.9 | 849.3 | 851.7 | 853.9 | 856.1 | 860.3 | 864.3 | 868.1
343.15 K | 837.5 | 838.4 | 840 | 842.4 | 844.9 | 847.2 | 851.8 | 856 | 860.1
353.15 K | 827.3 | 828.3 | 829.9 | 832.6 | 835.2 | 837.7 | 842.5 | 847 | 851.3

CCCCOCCOCCO [3,6-dioxa-1-decanol]
mass density [kg/m3]
Conditions | 100 kPa | 1000 kPa | 2500 kPa | 5000 kPa | 7500 kPa | 10000 kPa | 15000 kPa | 20000 kPa | 25000 kPa
283.15 K | 960.5 | 961 | 961.9 | 963.4 | 964.9 | 966.3 | 969.1 | 971.8 | 974.4
293.15 K | 952.2 | 952.7 | 953.7 | 955.2 | 956.7 | 958.2 | 961.1 | 963.9 | 966.7
303.15 K | 943.8 | 944.3 | 945.3 | 946.9 | 948.5 | 950.1 | 953.1 | 956.1 | 959
313.15 K | 935.3 | 935.9 | 936.9 | 938.6 | 940.3 | 941.9 | 945.1 | 948.2 | 951.2
323.15 K | 926.6 | 927.2 | 928.3 | 930.1 | 931.8 | 933.5 | 936.9 | 940.1 | 943.2
333.15 K | 917.8 | 918.5 | 919.7 | 921.6 | 923.4 | 925.2 | 928.7 | 932 | 935.2
343.15 K | 909.7 | 910.4 | 911.6 | 913.6 | 915.5 | 917.4 | 921.1 | 924.6 | 928
353.15 K | 900.9 | 901.7 | 903 | 905 | 907.1 | 909.1 | 912.9 | 916.6 | 920.1
